# Results: patent US20230382949A1 (HEPTARES THERAPEUTICS LIMITED, priority 2020, published 2023)
# pEC50: −log10 of the molar value. Read-outs that look alike come from different tables or passages of the source. Starred links: 1 amine or outer side, 2 acyl side, 3 side chain; linkers in the order of their positions; H or OH if unused. Non-standard residues stand in square brackets, D forms with d. Residues, ends and D or L forms follow the SMILES beside them. *: point of attachment. Ala(piperidin-4-yl) = O=C([C@H](CC1CCN([*:3])CC1)N[*:1])[*:2]; Malonyl(2,2-Me2,histaminyl) = CC(C)(C(=O)NCCc1cnc[nH]1)C(=O)*; Ala(1-imidazolyl) = N[C@@H](Cn1ccnc1)C(=O)O; Bip = N[C@@H](Cc1ccc(-c2ccccc2)cc1)C(=O)O; dBip = N[C@H](Cc1ccc(-c2ccccc2)cc1)C(=O)O; Oic = O=C(O)[C@@H]1C[C@@H]2CCCC[C@@H]2N1; Phe(3-Cl) = N[C@@H](Cc1cccc(Cl)c1)C(=O)O; Phe(4-Br) = N[C@@H](Cc1ccc(Br)cc1)C(=O)O; Phe(4-Cl) = N[C@@H](Cc1ccc(Cl)cc1)C(=O)O; 2Nal = N[C@@H](Cc1ccc2ccccc2c1)C(=O)O; d2Nal = N[C@H](Cc1ccc2ccccc2c1)C(=O)O; X5 = CC(C)(C(=O)NCc1c[nH]cn1)C(=O)*; hArg = N=C(N)NCCCC[C@H](N)C(=O)O; dCha = N[C@H](CC1CCCCC1)C(=O)O; Pip = O=C(O)[C@@H]1CCCCN1; Aib = CC(C)(N)C(=O)O; Bn = c1ccc(C*)cc1
# Key:
# human Apelin receptor [1] = target: T1, human Apelin receptor (Homo sapiens, UniProt P35414); assay: cAMP accumulation assay (HTRF), functional agonism of human Apelin receptors; format: cell-based; conditions: for Emax: CHO; for pEC50: pEC50, Human Apelin agonist cAMP assay; for EC50: read-out: pEC50 (converted)
# T1 sequence (P35414 1-380): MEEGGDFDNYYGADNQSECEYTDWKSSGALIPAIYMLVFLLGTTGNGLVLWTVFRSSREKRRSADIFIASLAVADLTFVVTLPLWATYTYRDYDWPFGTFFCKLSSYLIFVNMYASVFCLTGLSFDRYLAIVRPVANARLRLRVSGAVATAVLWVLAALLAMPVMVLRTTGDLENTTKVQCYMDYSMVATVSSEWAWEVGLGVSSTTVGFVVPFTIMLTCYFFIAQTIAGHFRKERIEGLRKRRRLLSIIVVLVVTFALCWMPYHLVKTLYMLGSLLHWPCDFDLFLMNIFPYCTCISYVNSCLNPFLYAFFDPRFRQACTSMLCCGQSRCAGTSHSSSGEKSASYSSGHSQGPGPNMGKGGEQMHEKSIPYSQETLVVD
# Description: cAMP functional assay. cAMP production was quantified using the Homogeneous Time-Resolved Fluorescence (HTRF) cAMP dynamic-2 assay (Cisbio, France).
# human Apelin receptor [2] = target: T2, human Apelin receptor (Homo sapiens, UniProt P35414); assay: β-arrestin accumulation assay, functional agonism of human Apelin receptors; format: cell-based
# T2 construct: host or cells: CHO-K1 cells
# Experimental: β-arrestin assay. […] After 16 h incubation at 37° C. media was removed and cells were incubated at 37° C. for 90 min in serum free media containing increasing concentrations of test agonist. The assay reaction was stopped by adding detection reagent (DiscoveRx) and incubation for 60 min in the dark. Levels of receptor activation were then measured on a PheraStar fluorescence plate reader (BMG LabTech) and EC50 values were determined using Graphpad Prism.
# T2 sequence (P32121 whole entry partner, one chain of several): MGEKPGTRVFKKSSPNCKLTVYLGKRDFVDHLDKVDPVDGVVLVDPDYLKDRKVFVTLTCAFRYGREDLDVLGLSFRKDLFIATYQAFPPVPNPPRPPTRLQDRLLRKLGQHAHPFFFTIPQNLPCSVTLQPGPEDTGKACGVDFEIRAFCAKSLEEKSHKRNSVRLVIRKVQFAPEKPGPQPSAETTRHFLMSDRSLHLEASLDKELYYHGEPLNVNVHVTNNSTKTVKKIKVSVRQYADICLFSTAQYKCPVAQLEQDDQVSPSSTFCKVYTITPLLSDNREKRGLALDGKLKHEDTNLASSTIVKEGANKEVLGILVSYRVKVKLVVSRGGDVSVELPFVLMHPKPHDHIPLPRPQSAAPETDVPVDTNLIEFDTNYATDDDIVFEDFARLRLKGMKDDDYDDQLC
# [3] = Human Apelin agonist cAMP assay, CHO cells stably expressing the human Apelin receptor, 3 uM forskolin
# [4] = CHO cells stably expressing the human Apelin receptor, 3 uM forskolin
Compound,Emax (human Apelin receptor [1]; [3]) [%],pEC50 (human Apelin receptor [1]; [4]),pEC50 (human Apelin receptor [2]),Emax (human Apelin receptor [1]; read-out: Emax) [%],EC50 (human Apelin receptor [1]) [nM]
"CC(C)C[C@H](NC(=O)[C@@H](CCCNC(=N)N)NC(=O)[C@@H]1CCCN1C(=O)[C@H](CCCCNC(=N)N)NC(=O)[C@H](CCC(N)=O)NC(=O)[C@@H](CCCNC(=N)N)NC(=O)C(C)(C)C(=O)NCCc1c[nH]cn1)C(=O)NC(C)(C)C(=O)N[C@@H](Cc1c[nH]cn1)C(=O)N[C@@H](CC1CCNCC1)C(=O)NCC(=O)N1[C@H](C(=O)N[C@@H](Cc2ccc(Cl)cc2)C(=O)N2CCC[C@H]2C(=O)N[C@H](Cc2ccc(-c3ccccc3)cc2)C(=O)O)C[C@@H]2CCCC[C@@H]21 [Example 17] ({Malonyl(2,2-Me2,histaminyl)}-[dR]Q[hArg]P[dR]L[Aib]H[Ala(piperidin-4-yl)]G[Oic][Phe(4-Cl)]P[dBip]-OH)",78.8,7.60,< 5.00,–,–
"CC(C)C[C@H](NC(=O)[C@@H](CCCNC(=N)N)NC(=O)[C@@H]1CCCN1C(=O)[C@H](CCCCNC(=N)N)NC(=O)[C@H](CCC(N)=O)NC(=O)[C@@H](CCCNC(=N)N)NC(=O)C(C)(C)C(=O)NCCc1c[nH]cn1)C(=O)NC(C)(C)C(=O)N[C@@H](Cc1c[nH]cn1)C(=O)N[C@@H](CC1CCNCC1)C(=O)NCC(=O)N1[C@H](C(=O)N[C@@H](Cc2cccc(Cl)c2)C(=O)N2CCC[C@H]2C(=O)N[C@H](Cc2ccc(-c3ccccc3)cc2)C(=O)O)C[C@@H]2CCCC[C@@H]21 [Example 18] ({Malonyl(2,2-Me2,histaminyl)}-[dR]Q[hArg]P[dR]L[Aib]H[Ala(piperidin-4-yl)]G[Oic][Phe(3-Cl)]P[dBip]-OH)",47.5,7.10,< 5.00,–,–
"CC(C)C[C@H](NC(=O)[C@@H](CCCNC(=N)N)NC(=O)[C@@H]1CCCN1C(=O)[C@H](CCCCNC(=N)N)NC(=O)[C@H](CCC(N)=O)NC(=O)[C@@H](CCCNC(=N)N)NC(=O)C(C)(C)C(=O)NCCc1c[nH]cn1)C(=O)NC(C)(C)C(=O)N[C@@H](Cc1c[nH]cn1)C(=O)N[C@@H](CC1CCNCC1)C(=O)NCC(=O)N1[C@H](C(=O)N[C@@H](Cc2ccc(-c3ccccc3)cc2)C(=O)N2CCC[C@H]2C(=O)N[C@H](Cc2ccc(-c3ccccc3)cc2)C(=O)O)C[C@@H]2CCCC[C@@H]21 [Example 19] ({Malonyl(2,2-Me2,histaminyl)}-[dR]Q[hArg]P[dR]L[Aib]H[Ala(piperidin-4-yl)]G[Oic][Bip]P[dBip]-OH)",97,7.70,< 5.00,–,–
"CC(C)C[C@H](NC(=O)[C@@H](CCCNC(=N)N)NC(=O)[C@@H]1CCCN1C(=O)[C@H](CCCCNC(=N)N)NC(=O)[C@H](CCC(N)=O)NC(=O)[C@@H](CCCNC(=N)N)NC(=O)C(C)(C)C(=O)NCCc1c[nH]cn1)C(=O)NC(C)(C)C(=O)N[C@@H](Cc1c[nH]cn1)C(=O)N[C@@H](CC1CCNCC1)C(=O)NCC(=O)N1[C@H](C(=O)N[C@@H](Cc2ccc3ccccc3c2)C(=O)N2CCC[C@H]2C(=O)N[C@H](Cc2ccc(-c3ccccc3)cc2)C(=O)O)C[C@@H]2CCCC[C@@H]21 [Example 20] ({Malonyl(2,2-Me2,histaminyl)}-[dR]Q[hArg]P[dR]L[Aib]H[Ala(piperidin-4-yl)]G[Oic][2Nal]P[dBip]-OH)",84.1,7.90,< 5.00,–,–
"CC(C)C[C@H](NC(=O)[C@@H](CCCNC(=N)N)NC(=O)[C@@H]1CCCN1C(=O)[C@H](CCCCNC(=N)N)NC(=O)[C@H](CCC(N)=O)NC(=O)[C@@H](CCCNC(=N)N)NC(=O)C(C)(C)C(=O)NCCc1c[nH]cn1)C(=O)NC(C)(C)C(=O)N[C@@H](Cc1c[nH]cn1)C(=O)N[C@@H](CC1CCNCC1)C(=O)NCC(=O)N1[C@H](C(=O)N[C@@H](Cc2ccc(Br)cc2)C(=O)N2CCCC[C@H]2C(=O)N[C@H](Cc2ccc(-c3ccccc3)cc2)C(=O)O)C[C@@H]2CCCC[C@@H]21 [Example 21] ({Malonyl(2,2-Me2,histaminyl)}-[dR]Q[hArg]P[dR]L[Aib]H[Ala(piperidin-4-yl)]G[Oic][Phe(4-Br)][Pip][dBip]-OH)",54.5,8.00,< 6.00,–,–
"CC(C)C[C@H](NC(=O)[C@@H](CCCNC(=N)N)NC(=O)[C@@H]1CCCN1C(=O)[C@H](CCCCNC(=N)N)NC(=O)[C@H](CCC(N)=O)NC(=O)[C@@H](CCCNC(=N)N)NC(=O)C(C)(C)C(=O)NCCc1c[nH]cn1)C(=O)NC(C)(C)C(=O)N[C@@H](Cc1c[nH]cn1)C(=O)N[C@@H](CC1CCNCC1)C(=O)NCC(=O)N1[C@H](C(=O)N[C@@H](Cc2ccc(Br)cc2)C(=O)N2CCC[C@H]2C(=O)N[C@H](Cc2ccc(OCc3ccccc3)cc2)C(=O)O)C[C@@H]2CCCC[C@@H]21 [Example 22] ({Malonyl(2,2-Me2,histaminyl)}-[dR]Q[hArg]P[dR]L[Aib]H[Ala(piperidin-4-yl)]G[Oic][Phe(4-Br)]P[dY](Bn)-OH)",98.1,8.10,< 5.00,–,–
"CC(C)C[C@H](NC(=O)[C@@H](CCCNC(=N)N)NC(=O)[C@@H]1CCCN1C(=O)[C@H](CCCCNC(=N)N)NC(=O)[C@H](CCC(N)=O)NC(=O)[C@@H](CCCNC(=N)N)NC(=O)C(C)(C)C(=O)NCCc1c[nH]cn1)C(=O)NC(C)(C)C(=O)N[C@@H](Cc1c[nH]cn1)C(=O)N[C@@H](CC1CCNCC1)C(=O)NCC(=O)N1[C@H](C(=O)N[C@@H](Cc2ccc(Br)cc2)C(=O)N2CCC[C@H]2C(=O)N[C@H](Cc2ccc3ccccc3c2)C(=O)O)C[C@@H]2CCCC[C@@H]21 [Example 23] ({Malonyl(2,2-Me2,histaminyl)}-[dR]Q[hArg]P[dR]L[Aib]H[Ala(piperidin-4-yl)]G[Oic][Phe(4-Br)]P[d2Nal]-OH)",–,–,< 5.00,43.4,25.1
"CC(C)C[C@H](NC(=O)[C@@H](CCCNC(=N)N)NC(=O)[C@@H]1CCCN1C(=O)[C@H](CCCCNC(=N)N)NC(=O)[C@H](CCC(N)=O)NC(=O)[C@@H](CCCNC(=N)N)NC(=O)C(C)(C)C(=O)NCCc1c[nH]cn1)C(=O)NC(C)(C)C(=O)N[C@@H](Cc1c[nH]cn1)C(=O)N[C@@H](CC1CCNCC1)C(=O)NCC(=O)N1[C@H](C(=O)N[C@@H](Cc2ccc(Br)cc2)C(=O)N2CCC[C@H]2C(=O)N[C@H](CC2CCCCC2)C(=O)O)C[C@@H]2CCCC[C@@H]21 [Example 24] ({Malonyl(2,2-Me2,histaminyl)}-[dR]Q[hArg]P[dR]L[Aib]H[Ala(piperidin-4-yl)]G[Oic][Phe(4-Br)]P[dCha]-OH)",–,–,< 5.00,87.9,31.6
"CC(C)C[C@H](NC(=O)[C@H](CCCNC(=N)N)NC(=O)[C@@H]1CCCN1C(=O)[C@@H](CCCNC(=N)N)NC(=O)[C@H](CCC(N)=O)NC(=O)[C@@H](CCCNC(=N)N)NC(=O)C(C)(C)C(=O)NCCc1c[nH]cn1)C(=O)NC(C)(C)C(=O)N[C@@H](Cc1c[nH]cn1)C(=O)N[C@@H](CC1CCNCC1)C(=O)NCC(=O)N1[C@H](C(=O)N[C@@H](Cc2ccc(Br)cc2)C(=O)N2CCC[C@H]2C(=O)N[C@H](Cc2ccc(-c3ccccc3)cc2)C(=O)O)C[C@@H]2CCCC[C@@H]21 [Example 25] ({Malonyl(2,2-Me2,histaminyl)}-[dR]Q[dR]PRL[Aib]H[Ala(piperidin-4-yl)]G[Oic][Phe(4-Br)]P[dBip]-OH)",92.7,7.80,< 5.00,–,–
CC(C)C[C@H](NC(=O)[C@@H](CCCNC(=N)N)NC(=O)[C@@H]1CCCN1C(=O)[C@H](CCCCNC(=N)N)NC(=O)[C@H](CCC(N)=O)NC(=O)[C@@H](CCCNC(=N)N)NC(=O)C(C)(C)C(=O)NCc1c[nH]cn1)C(=O)NC(C)(C)C(=O)N[C@@H](Cc1c[nH]cn1)C(=O)N[C@@H](CC1CCNCC1)C(=O)NCC(=O)N1[C@H](C(=O)N[C@@H](Cc2ccc(Br)cc2)C(=O)N2CCC[C@H]2C(=O)N[C@H](Cc2ccc(-c3ccccc3)cc2)C(=O)O)C[C@@H]2CCCC[C@@H]21 [Example 27] (X5-[dR]Q[hArg]P[dR]L[Aib]H[Ala(piperidin-4-yl)]G[Oic][Phe(4-Br)]P[dBip]-OH),–,–,< 5.00,66.1,6.31
"CC(C)C[C@H](NC(=O)[C@@H](CCCNC(=N)N)NC(=O)[C@@H]1CCCN1C(=O)[C@H](CCCCNC(=N)N)NC(=O)[C@H](CCC(N)=O)NC(=O)[C@@H](CCCNC(=N)N)NC(=O)C(C)(C)C(=O)NCCc1cnc[nH]1)C(=O)NC(C)(C)C(=O)N[C@@H](Cn1ccnc1)C(=O)N[C@@H](CC1CCNCC1)C(=O)NCC(=O)N1[C@H](C(=O)N[C@@H](Cc2ccc(Br)cc2)C(=O)N2CCC[C@H]2C(=O)N[C@H](Cc2ccc(-c3ccccc3)cc2)C(=O)O)C[C@@H]2CCCC[C@@H]21 [Example 28] ({Malonyl(2,2-Me2,histaminyl)}-[dR]Q[hArg]P[dR]L[Aib][Ala(1-imidazolyl)][Ala(piperidin-4-yl)]G[Oic][Phe(4-Br)]P[dBip]-OH)",27.4,7.80,< 5.00,–,–
